From patent US20190353647A1, “NOVEL REAL-TIME MULTIPLEXED, MULTI-COLOR BIOLUMINESCENCE RESONANCE ENERGY TRANSFER ASSAY, APPARATUS, AND USES THEREOF” (Universite de Bordeaux, priority 2016, published 2019)

Assays:
[1] = target: TRPV4 (Homo sapiens, UniProt Q9HBA0); experiment: Intermolecular BRET assay, TRPV4-Luc/YFP-CaM in HEK293T cells; assay type: cell-based; set-up: expressed in transfected cells; host or cells: HEK293T; details: for TRPV4-Luc/YFP-CaM basal BRET signal on challenge: HEK293T, dose-response, FIG. 1
Sequence of TRPV4 (Q9HBA0 whole entry, the tested form may be a part): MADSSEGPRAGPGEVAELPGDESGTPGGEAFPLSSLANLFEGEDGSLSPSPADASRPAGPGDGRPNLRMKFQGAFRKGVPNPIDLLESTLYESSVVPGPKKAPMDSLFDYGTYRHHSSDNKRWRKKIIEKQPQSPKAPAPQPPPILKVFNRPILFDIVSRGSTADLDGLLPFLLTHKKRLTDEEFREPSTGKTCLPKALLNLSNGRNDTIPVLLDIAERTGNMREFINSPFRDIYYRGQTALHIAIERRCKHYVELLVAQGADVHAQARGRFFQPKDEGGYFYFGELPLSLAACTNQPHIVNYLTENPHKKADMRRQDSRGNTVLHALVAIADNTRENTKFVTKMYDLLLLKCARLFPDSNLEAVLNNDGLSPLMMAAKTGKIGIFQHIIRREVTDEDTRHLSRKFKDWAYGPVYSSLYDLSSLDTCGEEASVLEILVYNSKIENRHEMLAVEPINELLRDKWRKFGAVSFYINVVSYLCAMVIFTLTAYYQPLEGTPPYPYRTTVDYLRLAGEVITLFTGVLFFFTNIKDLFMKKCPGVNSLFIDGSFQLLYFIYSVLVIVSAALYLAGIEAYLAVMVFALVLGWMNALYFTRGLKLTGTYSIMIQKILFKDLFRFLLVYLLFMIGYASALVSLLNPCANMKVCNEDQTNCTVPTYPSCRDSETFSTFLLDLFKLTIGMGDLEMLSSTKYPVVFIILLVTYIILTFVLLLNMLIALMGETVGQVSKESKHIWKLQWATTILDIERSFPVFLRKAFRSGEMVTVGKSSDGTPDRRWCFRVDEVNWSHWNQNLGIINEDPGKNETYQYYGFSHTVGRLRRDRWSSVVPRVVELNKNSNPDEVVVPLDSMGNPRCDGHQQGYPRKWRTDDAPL
Source text: (§1) In order to generate the BRET constructs, super Yellow Fluorescent Protein 2 and Renilla Luciferase II were used to improve the brightness of the assay. They were referred as YFP and Luc for short in the rest of the manuscript. The cDNA of Luc and YFP were first cloned together using a three-piece ligation in the BamHI/XhoI site of pcDNA3.1(+) (Invitrogen, Carlsbad, Calif., USA), yielding two expression vectors pcDNA3.1 YFP-Luc where YFP was cloned in-fusion at the N-terminal of Luc, and pcDNA3.1 Luc-YFP where Luc was cloned in-fusion at the N-terminal of YFP. Both YFP and Luc were amplified by PCR from the pcDNA3-YFP-EPAC-Luc vector. Luc was cloned either at the N-terminal of YFP as a HindIII-EcoRI fragment (primers used: “Luc_HindIII_ATGN-term sense” and “Luc_no Stop_EcoRI_N-term antisense”) or at the COOH-terminal of YFP as an EcoRI-XhoI fragment (primer used: “Luc_EcoRI_ATG_C-term sense” and “Luc_XhoI_Stop_C-term antisense”). In parallel, YFP was cloned either at the N-terminal of Luc as a HindIII-EcoRI fragment (primers used: “YFP_HindIII_ATG_N-term sense” and “YFP_no Stop_EcoRI_N-term antisense”) or at the COOH-terminal of Luc as a EcoRI-XhoI fragment (primer used: “YFP_EcoRI_ATG_C-term sense” and “YFP_XhoI_Stop_C-term antisense”). The sequence joining Luc and YFP sequence encoded […] (SEQ ID NO: 18) as a linker, and contained an AgeI restriction site. The YFP-hTRPV1-Luc expression vector was obtained by subcloning the human TRPV1 cDNA from the pDONR201-hTRPV1 vector (Harvard Medical School PlasmID Repository, clone HsCD00081472) as an EcoRI PCR fragment in the EcoRI site of the vector pcDNA3.1 YFP-Luc (primer used: “hTRPV1_EcoRI_Fus_Sense” and “hTRPV1_EcoRI_Fus_antisense”). The hTRPV1-Luc expression vector was obtained by subcloning the cDNA of hTRPV1 as a HindIII-EcoRI fragment in place of the YFP in the HindIII-EcoRI site of the pcDNA3.1 YFP-Luc vector (primer used: “hTRPV1_HindIII_ATG_Sense” and “hTRPV1_EcoRI_Fus_antisense”). […]
(§2) HEK293T cells were maintained in Dulbecco's modified Eagle's medium-high Glucose (DMEM) (D6429, Sigma) supplemented with 10% fetal bovine serum, 100 units mL-1 penicillin and streptomycin. […] After overnight incubation, transfected cells were then detached, resuspended in DMEM w/o red phenol (Ref 21063-029, ThermoFisher scientific, Waltham, Mass., USA) and replated at a density of 10^5 cells per well in 96-well white plates with clear bottoms (Greiner Bio one, Courtaboeuf, France) pre-treated with D-polylysine (Sigma) for reading with the Tristar2 luminometer (Berthold Technologies, Bad Wildbad, Germany) or onto 12 mm diameter glass coverslips (Knittel Glass, Braunschweig, Germany) treated with poly-L-lysine for the reading with the SpectraPro 2300i spectrometer (Acton Optics, Acton, Mass., USA). […]

[2] = target: T1, TRPV3 (Homo sapiens, UniProt Q8NET8); experiment: Intermolecular BRET assay, Luc-TRPV3/YFP-CaM in HEK293T cells; assay type: cell-based; set-up: expressed in transfected cells; host or cells: HEK293T; details: dose-response; for BRET signal between YFP-CaM and Luc-TRPV3 on challenge: FIG. 1
T1 sequence (Q8NET8 1-790): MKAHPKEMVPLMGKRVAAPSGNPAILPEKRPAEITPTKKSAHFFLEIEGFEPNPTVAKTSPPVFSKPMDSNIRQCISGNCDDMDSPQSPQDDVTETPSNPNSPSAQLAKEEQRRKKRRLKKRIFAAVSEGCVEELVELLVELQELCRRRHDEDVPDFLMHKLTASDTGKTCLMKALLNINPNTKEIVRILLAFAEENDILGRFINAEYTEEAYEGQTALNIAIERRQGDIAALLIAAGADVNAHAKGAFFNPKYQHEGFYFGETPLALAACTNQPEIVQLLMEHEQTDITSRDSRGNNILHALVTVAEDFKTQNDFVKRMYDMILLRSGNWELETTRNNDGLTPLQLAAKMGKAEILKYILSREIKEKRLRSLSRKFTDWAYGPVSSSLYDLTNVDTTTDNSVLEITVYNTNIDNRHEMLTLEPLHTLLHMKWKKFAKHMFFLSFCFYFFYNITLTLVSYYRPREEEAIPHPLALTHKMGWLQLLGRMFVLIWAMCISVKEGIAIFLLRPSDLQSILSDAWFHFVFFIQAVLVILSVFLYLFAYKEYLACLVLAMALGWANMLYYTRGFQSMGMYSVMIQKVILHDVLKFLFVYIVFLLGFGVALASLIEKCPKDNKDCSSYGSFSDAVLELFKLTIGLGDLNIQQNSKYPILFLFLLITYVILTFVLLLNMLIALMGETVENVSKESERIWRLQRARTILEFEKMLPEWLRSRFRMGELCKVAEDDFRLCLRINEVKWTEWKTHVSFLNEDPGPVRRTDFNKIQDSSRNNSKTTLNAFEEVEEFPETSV
Source text: as §1, §2

Compound: COc1cc(CNC(=O)CCCC/C=C/C(C)C)ccc1O [CAPS, Capsaicin]
- TRPV4-Luc/YFP-CaM basal BRET signal on challenge [1]: did not produce any increase
- BRET signal between YFP-CaM and Luc-TRPV3 on challenge [2]: no dose-dependent BRET increase

Compound: CCN(CC)CCOC(=O)C(c1ccccc1)C1CCCCC1 (centres unmarked) [Drofenine]
- TRPV4-Luc/YFP-CaM basal BRET signal on challenge [1]: did not produce any increase
- BRET signal between YFP-CaM and Luc-TRPV3 on challenge [2]: dose-dependent increase
- EC50 ([2]; FIG. 1, read-out: EC50 of BRET signal increase between YFP-CaM and Luc-TRPV3): 206 µM

Compound: CC(C)C[C@H](NC(=O)c1cc2ccccc2s1)C(=O)N1CCN(C(=O)[C@H](CO)NS(=O)(=O)c2ccc(Cl)cc2Cl)CC1 [GSK1016790A]
- EC50 [1]: 0.00193 µM
- TRPV4-Luc/YFP-CaM basal BRET signal on challenge [1]: dose-dependent increase
- BRET signal between YFP-CaM and Luc-TRPV3 on challenge [2]: no dose-dependent BRET increase
